Test results published in EP4417202A1, “ANTI-CANCER ACTION OF BAG1-SELECTIVE IMIDAZOPYRIDINE COMPOUNDS IN STEROID HORMONE RECEPTOR-POSITIVE BREAST AND PROSTATE CANCER” (Karlsruher Institut für Technologie, priority 2023, dated 2024).

Assays:
ERα = system: ERα
Description: For Western blotting, cells were lysed in NP-40 lysis buffer (1% NP-40, 50 mM Tris-HCl, pH 8.0, 150 mM NaCl, 5 mM EDTA) or 1× passive lysis buffer (Promega, Germany) for 15 min on ice. Cell debris was removed by centrifugation at 13,000 rpm for 10 min and used for SDS-polyacrylamide gel electrophoresis (PAGE) and Western blotting.
Western Blotting was carried out using standard protocols with antibodies: p53 (clone DO1), p53 (Sp5, Thermo Fisher Scientific Karlsruhe, Germany), Mdm2 (4B2, Abcam, Cambridge, UK). […] Secondary goat anti-mouse and goat anti-rabbit antibodies were purchased from DAKO (Bollschweil, Germany).

BAG1 [1] = test: Western blot of BAG1 level in breast cancer cells; assay type: cell-based; details: MCF-7 and T47D cells, 48 h
U2OS = test: Clonogenic assay (clonal expansion); assay type: cell-based; details: U2OS (osteosarcoma)
Description: (§1) Cells were seeded at a density of 1-2×10^3 cells/well in a 6 well plate in RPMI 1640 supplemented with 10% FBS, penicillin (100 u/ml), streptomycin (100 u/ml), and L-glutamine (2 mM). Cells were treated with increasing concentrations of X15695 and cultured for 14 to 21 days. Medium and compounds were exchanged after 7 days. Cells were fixed with methanol/ acetic acid mixture (3:1 v/v) and the formation of colonies was visualized using 0.5% crystal violet (w/v) in 20% methanol (v/v). Plates were scanned in a conventional office scanner (Epson). The area covered by colonies was calculated using the ColonyArea Plugin for ImageJ.

22Rv.1 = test: Clonogenic assay (clonal expansion); assay type: cell-based; details: Homo sapiens, 22Rv1; Prostate Cancer (22Rv.1), AR+; inhibition of clonal expansion
Description: as §1

BAG1M = target: T1, BAG1M (Homo sapiens, UniProt Q99933); test: Cellular thermal shift assay (Tagg-CETSA) in MCF-7 cells; assay type: binding; details: 1 µM, 1 h
T1 construct: endogenous in cells; host or cells: MCF-7
Description: (§2) To determine the aggregation temperature (Tagg-CETSA), MCF-7 cells were harvested and resuspended at a concentration of 2×10^6 cells/ml. X15695 (1 µM) or the same volume of DMSO were added to the cell suspension and incubated for 1 h at 37°C. Cells were washed and resuspend with phosphate-buffered saline (PBS) to a final concentration of 3×10^7 cells/ml. The cell suspension was evenly distributed into different tubes and treated with a gradient of temperature ranging from 37 to 62°C for 3 min. Cells were incubated 3 min at room temperature to ensure a uniform temperature between different tubes and then snap frozen with liquid nitrogen. Cells were lysed by freeze/thaw cycles with liquid nitrogen and centrifuged at 20,000 g for 20 min. Stable BAG proteins present in the supernatant were quantified by Western blotting using an anti-BAG1, 2, 3, and 5 antibodies and β-actin antibody for loading control.

BAG1L = target: T2, BAG1L (Homo sapiens, UniProt Q99933); test: as above; assay type: binding; details: 1 µM, 1 h
T2 construct: endogenous in cells; host or cells: MCF-7
Description: as §2

BAG1 [2] = target: T3, BAG1 (Homo sapiens, UniProt Q99933); test: as above; assay type: binding; details: 1 µM, 1 h
T3 construct: endogenous in cells; host or cells: MCF-7
Description: as §2

MCF-7 tumors = test: Mouse xenograft experiment, MCF-7; assay type: in vivo; details: MCF-7 xenograft
Description: MCF-7 and LAPC-4 cells (2×10^6) were suspended in 100 µl PBS: Matrigel (Corning NY USA, 1:1) and injected subcutaneously into both flanks of 6-7 weeks old female (for MCF-7 cells) and male (for LAPC-4 cells) athymic nude-Foxn1^nu mice (Envigo RMS GmbH, Düsseldorf, Germany). When tumor volumes were around 50 to100 mm^3, mice were randomized into four groups (7 mice per group) and treated daily by oral gavage as follows: (1) Control group (Vehicle) (corn oil, 1.0% dimethyl sulfoxide (DMSO) and (2) X15695 group, 30 mg per kg body weight) for the MCF-7 tumors or (1) Control group (Vehicle) (corn oil, 1.0% dimethyl sulfoxide (DMSO) (2) enzalutamide (Enza group, 15 mg per kg body weight), (3) X15695 group, 30 mg per kg body weight) and, (4) X15695 group (15 mg per kg body weight) for the LAPC-4 tumors. Body weight and tumor volumes were measured twice a week. Tumor volume was measured with a digital vernier caliper and calculated using the formula vol = length × width × height × 0.5236 and recorded or calculated relative to the starting volume which was nominally set at 100%. After 16 days for the MCF-7 tumors or 42 days for the LAPC-4 tumors, mice were sacrificed and the tumors removed, photographed, and weighed. Percent body weight change was calculated using the following formula: group percent weight change = [(new weight - initial weight)/initial weight] × 100]. Tumors were snap-frozen and stored for Western blot analysis.

p53 target genes = test: Quantitative RT-PCR of p53 target genes in MCF-7 and T47D cells; assay type: cell-based; details: 1 µM, absence and presence of E2, 16 h
Description: MCF-7, T47D and LNCaP cells (5×10^4 each) were seeded in 6-well plates and cultured with hormone-depleted medium for 3 days. Subsequently, the MCF-7 and T47D cells were treated with 10 nM 17-β-estradiol (E2) or dihydrotestosterone (DHT) for the LNCaP cells, 1 µM) X15695 (for the MCF-7 and T47D cells) or 5 µM) for LNCaP cells and X15695 together with E2 or DHT. A 1 h pre-treatment with X15695 was performed prior to treatment with E2 or DHT for 16 h. RNA was extracted using innuPREP RNA mini Kit 2.0 (Analytic Jena, Berlin, Germany). 1 µg RNA per sample was used as input material for the RNA sample preparations. Sequencing libraries were generated using NEBNext® UltraTM RNA Library Prep Kit for Illumina® (NEB, USA) following the manufacturer's recommendations and index codes were added to attribute sequences to each sample. The clustering of the index-coded samples was performed on a cBot Cluster Generation System using PE Cluster Kit cBot-HS (Illumina) according to the manufacturer's instructions. After cluster generation, the library preparations were sequenced on an Illumina platform and paired-end reads were generated. Library preparation and sequencing were carried out by Novogene Europe, Cambridge, UK. […] Select target genes were analyzed by RT-PCR experiments with RNA from the samples used for the RNA-seq analysis. […]

[3] = 30 mg/kg body weight per os daily
[4] = Western blot after the treatment period

T1 sequence (Q99933 72-345): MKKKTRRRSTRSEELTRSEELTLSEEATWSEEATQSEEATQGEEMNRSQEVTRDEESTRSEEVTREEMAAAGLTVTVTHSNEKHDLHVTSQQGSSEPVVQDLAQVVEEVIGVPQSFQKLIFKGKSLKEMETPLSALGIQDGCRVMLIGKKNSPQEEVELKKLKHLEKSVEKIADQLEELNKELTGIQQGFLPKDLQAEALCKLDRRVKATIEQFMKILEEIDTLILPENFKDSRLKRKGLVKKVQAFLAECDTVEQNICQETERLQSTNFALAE
T3 sequence (Q99933 116-345): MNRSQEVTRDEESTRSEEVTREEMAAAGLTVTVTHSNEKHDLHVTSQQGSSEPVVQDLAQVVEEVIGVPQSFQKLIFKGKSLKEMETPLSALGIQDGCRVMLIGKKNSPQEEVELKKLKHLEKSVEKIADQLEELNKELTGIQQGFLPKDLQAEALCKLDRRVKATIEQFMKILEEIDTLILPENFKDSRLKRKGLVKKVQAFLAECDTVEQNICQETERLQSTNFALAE
T2 sequence (Q99933 whole entry): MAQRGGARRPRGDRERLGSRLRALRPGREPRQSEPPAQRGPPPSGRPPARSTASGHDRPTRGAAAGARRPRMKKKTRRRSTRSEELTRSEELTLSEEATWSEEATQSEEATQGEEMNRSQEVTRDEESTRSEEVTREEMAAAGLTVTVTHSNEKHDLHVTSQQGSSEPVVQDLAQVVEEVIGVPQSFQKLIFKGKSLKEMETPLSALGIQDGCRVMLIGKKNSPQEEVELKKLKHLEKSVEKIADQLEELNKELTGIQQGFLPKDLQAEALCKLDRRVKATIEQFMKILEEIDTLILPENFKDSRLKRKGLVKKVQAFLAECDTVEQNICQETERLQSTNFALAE

Fc1ccc(-c2cn3cc(C(F)(F)F)cc(Cl)c3n2)cc1 [Compound X15695, 8-Chloro-2-(4-fluorophenyl)-6-(trifluoromethyl)imidazo[1,2-a]pyridine]
ERα downregulation over time (ERα; MCF-7 cells, 1 µM, time course): rather slow but more sustained downregulation lasing over 24 to 48 h | concentration sufficient to downregulate ERα (ERα; MCF-7 cells, 8 h): ≤ 1 nM | ERα level (ERα; immunoblotting, MCF-7 and T47D cells, 48 h): dose-dependently decreased ERα level | level of the BAG1 proteins (BAG1 [1]): dose-dependent decrease in the level of the BAG1 proteins | effect on clonal expansion (U2OS): did not have any effect | IC50 (22Rv.1): 40.2 ± 16.7 nM | increase of aggregation temperature (Tagg) over vehicle (BAG1M): 1-2 °C | increase of aggregation temperature (Tagg) over vehicle (BAG1L): 1-2 °C | increase of aggregation temperature (Tagg) over vehicle (BAG1 [2]): 3 °C | tumor volume (MCF-7 tumors; [3]): significant decrease | tumor weight (MCF-7 tumors; [3]): significant decrease | tolerability, body weight (MCF-7 tumors; 30 mg/kg body weight per os daily, 16 days): well tolerated and did not cause any weight loss or other signs of host toxicity | ERα level in tumor lysates (MCF-7 tumors; [4]): significant decrease in ERα level | p53 expression in tumor lysates (MCF-7 tumors; [4]): increase in p53 expression | expression of p53 target genes (p53 target genes): upregulation of expression of p53 target genes
